Biological target: T1, full-length C1r (Homo sapiens, UniProt P00736)
T1 construct: purchased Complement Technology (CompTech)
T1 sequence (P00736 18-463 limits assumed): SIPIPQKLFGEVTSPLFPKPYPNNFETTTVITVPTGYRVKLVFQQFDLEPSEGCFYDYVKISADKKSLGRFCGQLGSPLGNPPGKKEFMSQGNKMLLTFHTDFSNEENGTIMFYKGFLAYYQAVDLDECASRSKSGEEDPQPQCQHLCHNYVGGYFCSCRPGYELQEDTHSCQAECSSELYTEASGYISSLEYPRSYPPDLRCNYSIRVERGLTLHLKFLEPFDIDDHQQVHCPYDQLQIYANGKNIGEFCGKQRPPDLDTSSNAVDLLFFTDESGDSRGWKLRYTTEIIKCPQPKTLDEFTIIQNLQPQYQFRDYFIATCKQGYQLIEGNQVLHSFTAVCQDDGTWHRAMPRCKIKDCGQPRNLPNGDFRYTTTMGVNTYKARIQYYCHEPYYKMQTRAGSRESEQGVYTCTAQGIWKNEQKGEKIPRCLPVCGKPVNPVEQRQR
T1 sequence (P00736 464-705 limits assumed): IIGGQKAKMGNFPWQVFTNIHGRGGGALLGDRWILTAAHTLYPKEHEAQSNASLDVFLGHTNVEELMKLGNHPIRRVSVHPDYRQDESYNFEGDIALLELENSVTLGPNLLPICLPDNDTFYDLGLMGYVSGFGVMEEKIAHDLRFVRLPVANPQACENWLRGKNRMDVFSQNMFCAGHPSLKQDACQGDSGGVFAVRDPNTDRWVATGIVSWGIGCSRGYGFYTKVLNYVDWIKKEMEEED
Assay: SPR dose-dependent binding, steady-state affinity
Settings: for Kd: 1:1 steady-state binding model, mean ± S.D. from three independent injection series, 25 °C; for Ligand efficiency (LE): LE = ΔG/number of non-hydrogen atoms, ΔG = -RT x ln KD,C1r, using KD values of Fig. 3
Description: All SPR experiments were carried out using a Biacore T200 (GE Healthcare, Chicago, IL, USA) at 25 °C. For all experiments, a running buffer (HBS-T) of 20 mM HEPES (pH 7.3), 140 mM NaCl, 0.005% (v/v) Tween-20, 5% DMSO (v/v) was used. For each experiment, DMSO calibration curves ranging from 4% to 5.5% DMSO (v/v) were collected at the beginning, end, and every 50 cycles throughout the duration of the experiment. All experiments were performed using HC1500M sensor chips (Xantec, Duesseldorf, Germany). In total, 10 sensor chips and 16 ligand immobilized surfaces were created over the course of this study (detailed in Table S2). In all cases, C1r proteins were immobilized onto chip surfaces using amine-coupling chemistry with 1-ethyl-3-(3-dimethylaminopropyl)-carbodiimide) (EDC), N-hydroxysuccinimide (NHS), followed by ethanolamine. Briefly, 100 mM of EDC and NHS were mixed and injected to activate the chip surface followed by the C1r protein ligand captured at a defined resonance unit (RU) level, followed by reaction quenching with 100 mM ethanolamine pH 8.5. Flow cell 1 was always used as a reference cell (no ligand), unless otherwise noted. All sensorgrams were reference and blank subtracted and analyzed using T200 Evaluation Software (GE Healthcare, Chicago, IL, USA).
To further evaluate hit compounds from the initial SPR screen, dose-dependent SPR binding assays were carried out. Three replicate flow cells were used containing both low and high immobilization densities of C1r (see Table S2). Hit compounds were tested for dose-dependent binding to full-length C1r using a compound concentration range of 7.8–500 µM. T200 evaluation software was used to calculate steady-state affinities for each compound by fitting sensorgrams from each variable concentration injection dataset using a 1:1 Langmuir model of interaction constrained by a theoretical experimental binding response based on the mol. wt. of each compound and derived as stated above. KD values are reported as the mean ± the standard deviation from at least three independent measurements.

| Kd [µM] | Ligand efficiency (LE) | SMILES |
| --- | --- | --- |
| 670 | 0.22 | COCc1nc(-c2ccc(OC3CNC3)cc2)no1 [CMP-1696] |
| 480 | 0.28 | CN(C)c1cc(N2CCCC(N)C2)ncn1 (centres unmarked) [CMP-1611] |
| 11 | – | N=C(N)c1ccc2cc(OC(=O)c3ccc(N=C(N)N)cc3)ccc2c1 [Futhan, reference compound] |
